Here are results for 34 molecules from patent US5164406A, “Method for enhancing transdermal penetration and compositions useful therein” (priority 1989, dated 1992).

How the values of this series were obtained:
Polyoxyethylene stearyl ethers, 3 wt. %
Polyoxypropylene fatty alcohol ethers, 3 wt. %
Deionized water, 94 wt. %
Further, in all cases, unless otherwise noted, the tests were carried out at 37° C. and results were compared to penetration data for the same material in the oil/water emulsion base. Moreover, all percentages of composition components recited are, unless otherwise indicated, weight percent (wt. %) and are based upon the total weight of the composition.
The test method is carried out as follows:
A. Prior to testing, rats are routinely acclimated to the laboratory environment for seven days and gross observations are made to ensure good health of the animals to be tested.
B. Female Sprague Dawley rats (190-240 gm) are selected for testing and identified by cage label and ear tag number.
C. Diffusion Cell Preparation.
1. An O-ring is placed on a standard Franz Diffusion Cell. A stir bar is placed in the receptor compartment. Each cell is filled with approximately 4.5 ml sterile physiologic saline (receptor compartments are calibrated to contain 5.0 ml).
2. The jacketed diffusion cells are maintained at 37° C.±1° (or alternatively desired temperature) using an external water bath and a circulating pump.
D. Skin Section Preparation and Mounting
1. Test animals are sacrificed by intraperitoneal injection of 0.4 ml/100 gm. body weight sodium pentobarital (1 gm/ml).
2. The backs are lightly shaved using electric hair clippers.
3. A section of skin, measuring approximately 8 cm long by 7 cm wide, is removed from the back of each rat using a No. 20 scalpel assuring that the skin section is free from subcutaneous fat.
4. A piece of the skin section is mounted over an O-ring on the diffusion cell, epidermal side facing up. The donor compartment is placed on top of the skin section making a complete seal over the skin. A clamp is used to secure the skin section in place.
5. Air bubbles that collect under the skin are removed by inverting the diffusion cell and tapping it gently. The receptor compartment is filled with sterile physiologic saline to 5.0 ml.
E. Application of Test Materials
1. Test and control materials are applied to the skin using s syringe or spatula. The material is spread evenly and completely over the exposed skin surface using the tip of the syringe/spatula.
1. An HPLC carousel is loaded with microvials. Springs and inserts are placed into the microvials.
2. Receptor compartments are sampled at desired time intervals using a microliter (μl) syringe. The sample (approximately 160 μl) is placed into the insert. The microvial is sealed with a plastic cap.
3. When multiple sampling is required, the receptor compartment is replenished with sterile physiologic saline to maintain a 5.0 ml volume.
Samples are analyzed using standard analytical techniques. The presence of test material in the samples is indicative of transdermal penetration.

[1] abbreviates: 2% TPL in B with 0.5% imidazole derivative, Table 2, average of multiple determinations.
[2] abbreviates: multiple of average control determination of the same study, 2% TPL in B with 0.5% imidazole derivative, Table 2.

Where a name gives a salt, the structure may show the parent alone. Read-outs that look alike come from different tables or passages of the source.

On to `CCCCCCCCCCCCn1ccnc1` [1-DODECYL IMIDAZOLE], for which the “24 hour penetration of tripelennamine HCl (total micrograms base)” value is on record as 479 micrograms base and the “Increase in penetration relative to control” value was 4.0.

On to `c1ccc(-c2ncc[nH]2)cc1` [2-PHENYL IMIDAZOLE], for which, under setting [1], the “24 hour penetration of tripelennamine HCl (total micrograms base)” value turned out to be 435 micrograms base. Besides, under setting [2], the “Increase in penetration relative to control” value came out at 1.7.

Take `Cc1nccn1Cc1ccccc1` [1-BENZYL-2-METHYL IMIDAZOLE]: the “24 hour penetration of tripelennamine HCl (total micrograms base)” value was 463 micrograms base and the “Increase in penetration relative to control” value stood at 1.8.

Consider `CCC(=O)n1ccnc1` [N-PROPIONYL IMIDAZOLE], for which the “24 hour penetration of tripelennamine HCl (total micrograms base)” value worked out at 453 micrograms base and the “Increase in penetration relative to control” value came to 2.5.

For `Cn1ccnc1` [1-METHYL IMIDAZOLE], the “24 hour penetration of tripelennamine HCl (total micrograms base)” value under setting [1] is reported as 728 micrograms base. Besides, under setting [2], the “Increase in penetration relative to control” value was found to be 3.0.

As to “1-cyanoethyl-2-phenylimidazole [1-CYANOETHYL-2-PHENYL IMIDAZOLE]”, the “24 hour penetration of tripelennamine HCl (total micrograms base)” value under setting [1] was determined as 310 micrograms base. Also, the “Increase in penetration relative to control” value under setting [2] worked out at 2.6.

`N[C@H](Cc1c[nH]cn1)C(=O)O` [D-HISTIDINE, D-histidine]: the “24 hour penetration of tripelennamine HCl (total micrograms base)” value is recorded as 197 micrograms base and the “Increase in penetration relative to control” value came to 2.8.

Turning to `Cc1ccc(/C(=C\CN2CCCC2)c2ccccn2)cc1` [TRP, TRIPROLIDINE HCL, reference compound], the “24 hour penetration (total micrograms base)” value was 180 micrograms base.

For `NS(=O)(=O)c1cc2c(cc1Cl)NCNS2(=O)=O` [HCTZ, HYDROCHLOROTHIAZIDE, reference compound], the “24 hour penetration (total micrograms base)” value is given as 1.7 micrograms base. The “Imidazole enhanced the transdermal penetration (fold)” value (5% HCTZ with 1% imidazole, Table 3 Study IX) is “five”.

Take `COc1ccc2c(c1)[C@]13CCCC[C@@H]1[C@H](C2)N(C)CC3` [DEX, DEXTRO[…], HBR, reference compound]: the “24 hour penetration (total micrograms base)” value amounted to 360 micrograms base (B + 2% DEX + 0.5% IPM + 0.5% IMI, Table 3 Study VIII) and 124 micrograms base (control: 2% of the drug alone in B, Table 3). The “Increase in penetration relative to control” value (multiple of average control determination, B + 2% DEX + 0.5% IPM + 0.5% IMI, Table 3 Study VIII) was found to be 2.9.

For `Cc1ncc[nH]1` [2-METHYL IMIDAZOLE], the “24 hour penetration of tripelennamine HCl (total micrograms base)” value came out at 615 micrograms base and the “Increase in penetration relative to control” value is given as 2.6.

Turning to `Cc1c[nH]cn1` [4-METHYL IMIDAZOLE], the “24 hour penetration of tripelennamine HCl (total micrograms base)” value under setting [1] came to 477 micrograms base. In addition, under setting [2], the “Increase in penetration relative to control” value was 3.9.

`CC(C)n1ccnc1` [1-ISOPROPYL IMIDAZOLE]: the “24 hour penetration of tripelennamine HCl (total micrograms base)” value worked out at 527 micrograms base and the “Increase in penetration relative to control” value was 2.9.

Regarding `c1ccc(Cn2ccnc2)cc1` [1-BENZYL IMIDAZOLE], the “24 hour penetration of tripelennamine HCl (total micrograms base)” value under setting [1] was 277 micrograms base. Besides, the “Increase in penetration relative to control” value under setting [2] is 1.1.

Take `CCCCCCCCCCn1ccnc1` [1-DECYL IMIDAZOLE]: the “24 hour penetration of tripelennamine HCl (total micrograms base)” value was determined as 446 micrograms base and the “Increase in penetration relative to control” value was found to be 3.7.

As for `CCCCCCCCCCCCCCCCCc1ncc[nH]1` [2-[…]], the “24 hour penetration of tripelennamine HCl (total micrograms base)” value under setting [1] was 358 micrograms base. Further, the “Increase in penetration relative to control” value under setting [2] is 1.5.

In the case of `CCCc1ncc[nH]1` [2-PROPYL IMIDAZOLE], the “24 hour penetration of tripelennamine HCl (total micrograms base)” value came to 554 micrograms base and the “Increase in penetration relative to control” value stood at 2.2.

On to `CC(=O)Oc1ccccc1C(=O)O` [ASA, ASPIRIN, reference compound], for which the “24 hour penetration (total micrograms base)” value worked out at 87.5 micrograms base.

On to `NCCCn1ccnc1` [N-(3-AMINOPROPYL) IMIDAZOLE, N-(3-aminopropyl)imidazole], for which the “24 hour penetration of tripelennamine HCl (total micrograms base)” value was found to be 457 micrograms base and the “Increase in penetration relative to control” value came out at 2.5.

In the case of `O=[N+]([O-])c1c[nH]cn1` [4-NITRO IMIDAZOLE], the “24 hour penetration of tripelennamine HCl (total micrograms base)” value was found to be 142 micrograms base and the “Increase in penetration relative to control” value is recorded as 1.2.

As for `O=C(/C=C/c1ccccc1)n1ccnc1` [N-TRANS-CINNAMOYL], the “24 hour penetration of tripelennamine HCl (total micrograms base)” value is listed as 153 micrograms base and the “Increase in penetration relative to control” value was 1.8.

Regarding `CC(C)NCC(O)c1cc(O)cc(O)c1` (stereo not drawn) [MET, METAPROTERENOL SULFATE, reference compound], the “24 hour penetration (total micrograms base)” value is on record as 47.6 micrograms base.

Consider `Cc1nc[nH]c1CO` [4-(HYDROXYMETHYL) 5-METHYL IMIDAZOLE], for which the “24 hour penetration of tripelennamine HCl (total micrograms base)” value was found to be 149 micrograms base and the “Increase in penetration relative to control” value is on record as 1.2.

Consider `c1ccc(-c2c[nH]cn2)cc1` [4-PHENYL IMIDAZOLE], for which the “24 hour penetration of tripelennamine HCl (total micrograms base)” value under setting [1] is 368 micrograms base. The “Increase in penetration relative to control” value under setting [2] is 3.0.

As to `CC(C)Cc1ccc(C(C)C(=O)O)cc1` (stereo not drawn) [IBU, IBUPROFEN, reference compound], the “24 hour penetration (total micrograms base)” value is, setting by setting: (B + 5% drug + 0.5% imidazole (IMI), Table 3) 378.0 micrograms base; (control: 5% of the drug alone in B, Table 3) 181.5 micrograms base. Moreover, under “multiple of average control determination, B + 5% drug + 0.5% IMI, Table 3”, the “Increase in penetration relative to control” value is 2.1.

Regarding `CNC[C@H](O)c1cccc(O)c1` [PHE, PHENYLEPHRINE HCL, reference compound], the “24 hour penetration (total micrograms base)” value is recorded as 266 micrograms base.

With `Cc1nccn1C` [1-2 DIMETHYL IMIDAZOLE, 1,2-dimethylimidazole], the “24 hour penetration of tripelennamine HCl (total micrograms base)” value came out at 374 micrograms base and the “Increase in penetration relative to control” value worked out at 4.3.

On to `c1ccc2c(CC3=NCCN3)cccc2c1` [NAP, NAPHAZOLINE HCL, reference compound], for which the “24 hour penetration (total micrograms base)” value was 161 micrograms base and the “Penetration enhanced by imidazole” value was 480%.

Regarding `NNC(=O)c1c[nH]cn1` [4-CARBOXYLIC ACID HYDRAZIDE IMIDAZOLE], the “24 hour penetration of tripelennamine HCl (total micrograms base)” value under setting [1] was 143 micrograms base. Besides, under setting [2], the “Increase in penetration relative to control” value is 1.7.

With `Cn1cc[nH]c1=S` [METHIMIDAZOLE, methimazole, reference compound], the “24 hour penetration of tripelennamine HCl (total micrograms base)” value came out at 301 micrograms base and the “Increase in penetration relative to control” value is recorded as 3.5.

Consider `c1ccc(-n2ccnc2)cc1` [1-PHENYL IMIDAZOLE], for which, under setting [1], the “24 hour penetration of tripelennamine HCl (total micrograms base)” value was found to be 450 micrograms base. Under setting [2], the “Increase in penetration relative to control” value came to 1.8.

`CCCCn1ccnc1` [1-BUTYL IMIDAZOLE]: the “24 hour penetration of tripelennamine HCl (total micrograms base)” value was 497 micrograms base and the “Increase in penetration relative to control” value turned out to be 2.1.

`CC(C)=CCCC(C)=CCn1ccnc1` [1-(3,7-dimethyl-2,6-octadienyl) imidazole]: the “24 hour penetration of tripelennamine HCl (total micrograms base)” value is 479 micrograms base and the “Increase in penetration relative to control” value is reported as 2.6.

In the case of `OCc1c[nH]cn1` [4-HYD[…], 4-hydroxymethyl imidazole], the “24 hour penetration of tripelennamine HCl (total micrograms base)” value under setting [1] came out at 224 micrograms base. Under setting [2], the “Increase in penetration relative to control” value stood at 3.2.
